Measurements taken from patent US11505579B2, “Methods of treatment and related compositions” (ASCEND BIOPHARMACEUTICALS LTD, priority 2020, dated 2022).

Assays:
B16F10 tumours = assay: Tumour growth and survival of B16F10 tumour-bearing mice (B16F10-e357 study); assay type: in vivo, mouse; conditions: for mice alive after day 12: culled at ethical end point
Method: The B16F10 murine colon carcinoma cell line was maintained in DMEM medium containing 10% fetal bovine serum, 2 mM glutamine, 100 units/mL sodium penicillin G, 25 μg/mL gentamicin, and 100 μg/mL streptomycin sulfate. The tumour cells were cultured in tissue culture flasks in a humidified incubator at 37° C., in an atmosphere of 5% CO2 and 95% air.
B16F10 cells were harvested during log phase growth and resuspended in PBS. Each mouse was injected subcutaneously in the right flank with 5×10^5 cells (in a 0.1 mL cell suspension). Tumours were calipered in two dimensions to monitor growth as their mean volume approached the desired 30 to 60 mm^3 range. Tumour size, in mm^3, was calculated from:
[formula] where w=width and l=length, in mm, of the tumour. Tumour weight can be estimated based on the assumption that 1 mg is equivalent to 1 mm^3 of tumour volume.
Eight days after tumour cell implantation, on Day 1 of the study, animals were sorted into eight groups (n=10 per group) according to tumour volume, with individual tumour volumes ranging from 32 to 63 mm^3 and group mean tumour volumes ranging from 41 to 42 mm^3. Tumour progression was monitored using caliper measurements three times weekly for the duration of the study.
Vismodegib and Ad5-mIFNg (stock concentration 3.3×10^12 viral particles/mL) were stored at −80° C. prior to formulation. On each day of dosing, Vismodegib was dissolved in vehicle 2 (75% PEG400:25% D5W (5% dextrose in water)) to obtain 5 mg/mL and 10 mg/mL dosing solutions which delivered a dose of 50 mg/kg and 100 mg/kg when administered in a volume of 10 mL/kg (0.2 mL per 20 g mouse), adjusted to the body weight of each animal.
On the first day of dosing, Ad5-mIFNg was thawed rapidly and diluted in vehicle 1 (1 M saccharose, 54 mg/L Tween® 80, 10 mM Tris, 1 mM MgCl2, 150 mM NaCl, pH 8) to obtain dosing solutions of 5×10^11 particles/mL and 2×10^11 particles/mL, which delivered 1×10^10 particles/animal when dosed in a fixed volume of 20 μL and 50 μL per animal, respectively.
On Day 1 of the study, female mice bearing established B16F10 tumours were sorted into eight groups (n=10 per group) and began dosing according to the treatment plan summarized in Table 2. Vehicle 1 and Ad5-mIFNg (1×10^10 particles per animal) were administered intratumourally (itu) in a fixed volume of either 20 μL or 50 μL; vehicle 2 and Vismodegib were administered orally (po) in a volume of 10 mL/kg (0.2 mL per 20 g mouse), adjusted to the body weight of each animal. The groups were as follow:
Group 1 served as the control group and received 20 μL vehicle 1 itu once a day (qd) for three days (qd×3) and vehicle 2 po qd×7.
Group 2 received 20 μL vehicle 1 itu qd×3 and 50 mg/kg vismodegib po qd×7.
Group 3 received 1×10^10 particles/animal Ad5-mIFNg in 20 μL itu qd×3 and vehicle 2.
Group 4 received 1×10^10 particles/animal Ad5-mIFNg 1 itu qd×3 and 50 mg/kg vismodegib 2 po qd×7.
Group 5 received 20 μL vehicle 1 itu once a week for a week (qwk×1) followed by 50 μL vehicle 1 itu qwk×1 (starting on Day 8) in addition to vehicle 2 po three times a week (tiwk) to Day 10.
Group 6 received 20 μL vehicle 1 itu once a week for a week (qwk×1) followed by 50 μL vehicle 1 itu qwk×1 (starting on Day 8) and 100 mg/kg Vismodegib in vehicle 2 po tiwk to Day 13. […]

[1] = test system: operable basal cell carcinoma; conditions: Vismodegib 150 mg daily over 12 weeks; Sofen et al. (2015); cited from earlier work

SMILES: CS(=O)(=O)c1ccc(C(=O)Nc2ccc(Cl)c(-c3ccccn3)c2)c(Cl)c1 [Vismodegib]
- tumour growth compared to the control vehicle treated groups (B16F10 tumours; G2: Vismodegib 50 mg/kg po qd×7, vehicle 1 itu qd×3): did not significantly reduce tumour growth
- mice alive after day 12 (B16F10 tumours; G2: Vismodegib 50 mg/kg po qd×7): none
- mice still alive on day 36 (number of mice) (B16F10 tumours; G2: Vismodegib only 50 mg/kg po qd×7, day 36): no mice
- tumour growth compared to the control vehicle treated groups (B16F10 tumours; G6: Vismodegib 100 mg/kg po tiwk×3, vehicle 1 itu): did not significantly reduce tumour growth
- mice alive after day 12 (B16F10 tumours; G6: Vismodegib 100 mg/kg po tiwk×3): none
- loco-regional CHC [1]: 16%
